The test system of assay [1] is DENV-2 strain 16681. Description: DENV-2 inhibition (cytopathic effect inhibition) using Viral ToxGlo assay in A549 cells. The note with it: Dengue virus, DENV2, 120 h, compounds at 10 μM, MOI 0.5, 5 days p.i., read-out: % DENV-2 Inhibition Mean (n = 3). The class given is cell-based, Dengue 2 virus. As for the experimental part: Protocol for Screening Antiviral Compounds for DENV-2 Inhibition and Cytotoxicity Using Viral ToxGlo Assay
A549 cells were maintained in Dulbecco's Modified Eagle Medium (DMEM) supplemented with 10% fetal bovine serum, 100 U/ml penicillin and 100 μg/ml streptomycin. For the purposes of the screening assay they were grown to 90% confluency, trypsinized and recovered. The trypsin was neutralised with cell culture media and cells were centrifuged at 150×g for 5 minutes before discarding the supernatant and resuspending cell pellet in assay media (DMEM supplemented with 2% fetal bovine serum and 100 U/ml penicillin and 100 μg/ml streptomycin). The cells were seeded into 96-well white clear-bottomed cell culture plates at a density of 1.0×10^4 cells/well in 50 μl. For the media/background control column assay media only was added. Cell plates were placed in a humid chamber and incubated overnight at 37° C./5% CO2. After overnight incubation cells were checked for confluency and healthy appearance.
Test compounds were prepared at a final concentration of 10 μM in a maximum DMSO concentration of 1% (final assay concentration maximal 0.1% DMSO) and added to the cell plates in volumes of 10 μl. For cell control and virus control wells the test article solvent only was added. As a positive inhibition control, 7-Deaza-2′-C-methyladenosine was added at 100 μM in 3 wells. Virus (DENV-2 strain 16681) or assay media for cytotoxicity test wells and media/cell control wells was added immediately after test articles at an MOI of 0.5, 40 for 96 well plates respectively. Virus suspension was prepared by thawing DENV-2 frozen stocks and diluting to the required concentration of plaque forming units in assay media.
Cell plates were further incubated inside a humid chamber for 5 days p.i at 37° C./5% CO2. After the incubation period cells were observed under the microscope to check for characteristic cytopathic effect in virus control wells and healthy cells in the cell control wells. After plates were adjusted to room temperature 20 μl Viral ToxGlo (Promega) was added to each well of the 96-well cell plates. Plates were incubated at room temperature for 5 minutes before measuring the luminescence on a spectrophotometer (Envision, PerkinElmer).
DENV-2 inhibition was calculated as percentage of cytopathic effect inhibition relative to the virus control and cytotoxicity as percentage of cell survival relative to cell control wells.
(In general: Damage to the host cells serves as the signal in cytopathic effect assays.)

Assay [2] deals with RSV A2. Kind of assay: RSV inhibition (cytopathic effect inhibition) using Viral ToxGlo assay in HEp-2 cells. The class given is cell-based. The note with it: human respiratory syncytial virus, RSV A2, MOI 0.5, HEp-2 cells, 72 h p.i. Put shortly: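 HEp-2 cells in EMEM with 2% FBS were infected with RSV A2 at MOI 0.5 immediately after compound (≤1% DMSO) and incubated 72 h at 37 °C. Viral ToxGlo luminescence gave % cytopathic effect inhibition versus virus control, plus cytotoxicity versus cell control; EC50 derived from dose-response.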

The structures appear in SMILES notation.

For orientation: inhibition means the drop in the measured response relative to a control, in per cent. As a reminder, the EC50 is the concentration at which the effect is half-maximal.

Regarding `O=C(NCCC1CCCCC1)c1cccc(Nc2ccc(OCc3ccccn3)cc2)c1` [Compound 38, N-(2-cyclohexylethyl)-3-((4-(pyridin-2-ylmethoxy)phenyl)amino)benzamide], the inhibition at 10 µM in assay [1] was determined as 65%. For the same compound, the EC50 in assay [2] stood at 281 nM.

As for `Cc1cc(OCc2ccccn2)ccc1Nc1cccc(C(=O)NCCC2CC2)c1` [Compound 45, N-(2-cyclopropylethyl)-3-((2-methyl-4-(pyridin-2-ylmethoxy)phenyl)amino)benzamide], the inhibition at 10 µM in assay [1] was found to be 89%. Also, in assay [2], the EC50 stood at 280 nM.

For `Cc1cc(OCc2ccccn2)ccc1Nc1cccc(C(=O)NCCC2CCC2)c1` [Compound 46, N-(2-cyclobutylethyl)-3-((2-methyl-4-(pyridin-2-ylmethoxy)phenyl)amino)benzamide], the inhibition at 10 µM in assay [1] was determined as 71%. For the same compound, the concentration for a half-maximal effect (EC50) in assay [2] came out at 199 nM.

As for `CCCC(C)NC(=O)c1cccc(Nc2ccc(OCc3ccccn3)cc2)c1` (stereo not shown) [Compound 64, N-(pentan-2-yl)-3-((4-(pyridin-2-ylmethoxy)phenyl)amino)benzamide], the inhibition at 10 µM in assay [1] came to 93%. For the same compound, the EC50 in assay [2] worked out at 341 nM.

On to `Cc1cc(OCc2ccccn2)ccc1Nc1cccc(NC(=O)NCCC(C)C)c1` [Compound 68, 1-isopentyl-3-(3-((2-methyl-4-(pyridin-2-ylmethoxy)phenyl)amino)phenyl)urea], for which the inhibition at 10 µM in assay [1] amounted to 70%. The concentration giving a half-maximal response (EC50) in assay [2] came to 144 nM.

(Values after patent publication US12421206B2, “Aryl-n-aryl derivatives for treating a RNA virus infection” (ABIVAX, priority 2018, dated 2025).)
